US5789434A, “Derivatives of substituted 4-biarylbutyric acid as matrix metalloprotease inhibitors” (priority 1995, dated 1998)

Legend:
Assay type in all cases: biochemical
[1] = target: T1, MMP-9 (Homo sapiens, UniProt P14780); test: Automated MMP Profiling Assay, MMP-9 fluorogenic; details: 96-well automated, P218
T1 construct: from tissue; host or cells: human polymorphonuclear leukocytes (PMN) from whole blood (New York Blood Center), PMA-stimulated supernatant
Method: Briefly, polymorphonuclear leukocytes (PMN) preparations were isolated as described above from 3 or more units of freshly drawn whole blood obtained from the New York Blood Center (New York, N.Y.). Cells were resuspended in phosphate buffered saline (PBS) containing 100 ng/ml phorbol myristate acetate (PMA) in the presence of 50 mM diisopropylfluorophospate (DFP), 1 μg/ml leupeptin and aprotinin, and 1 mg/ml catalase for 1 hr at 37° C. Supernatants were collected by centrifugation (300×g) and the samples were frozen at -70° C. All chromatographic methods were performed at 4° C. Thawed samples were concentrated 5-fold using an Amicon chamber equipped with a YM-10 membrane. The concentrate was pressure dialyzed against 0.02M Tris-HCl, 0.1M NaCl, 1 mM CaCl2, 1 μM ZnCl2, 0.001% Brij-35, 0.02% sodium azide (NaN3), pH 7.5 and applied to DEAE ion exchange chromatography resin which was previously equilibrated with the same buffer at a flow rate of 0.4 ml/min. The column was extensively washed with the same buffer and gelatinase was eluted as 4 ml fractions from the column with 0.02M Tris-HCl, 0.5M NaCl, 1 mM CaCl2, 1 μM ZnCl2, 0.001% Brij-35, 0.02% NaN3, pH 7.5. Gelatinase containing fractions were observed by gelatin zymography (see below), loaded onto a gelatin agarose affinity resin and washed with the same buffer. Gelatinase activity was eluted at a flow rate of 1 ml/min from the column as 1 ml fractions with 0.02M Tris-HCl, 1M NaCl, 1 mM CaCl2, 1 μM ZnCl2, 0.001% Brij-35, 0.02% NaN3, pH 7.5 containing 10% dimethyl sulfoxide (DMSO). The fractions containing gelatinase activity were pooled and dialyzed against 0.005M Tris-HCl, 5 mM NaCl, 0.5 mM CaCl2, 0.1 μM ZnCl2, 0.001% Brij-35, pH 7.4. The protein content associated with material was determined with a micro-BCA assay (Pierce, Rockford, Ill.), lyophilized and reconstituted to a desired working concentration (100 μg/ml).
This assay was run with a protocol analogous to that reported for MMP-3 inhibition using the synthetic peptide P218 and each of the three enzymes and measuring quenched fluorescence. This assay with each invention compound was run with the three enzymes MMP-3, MMP-9 and MMP-2 in parallel as adapted for a 96-well microtitre plate using a Hamilton A® workstation.

[2] = target: T2, MMP-2 (Homo sapiens, UniProt P08253); test: Automated MMP Profiling Assay, MMP-2 fluorogenic; details: 96-well automated, P218; read-out: MMP-2 Fluorogenic IC50 (profiling)
T2 sequence (P08253 110-660): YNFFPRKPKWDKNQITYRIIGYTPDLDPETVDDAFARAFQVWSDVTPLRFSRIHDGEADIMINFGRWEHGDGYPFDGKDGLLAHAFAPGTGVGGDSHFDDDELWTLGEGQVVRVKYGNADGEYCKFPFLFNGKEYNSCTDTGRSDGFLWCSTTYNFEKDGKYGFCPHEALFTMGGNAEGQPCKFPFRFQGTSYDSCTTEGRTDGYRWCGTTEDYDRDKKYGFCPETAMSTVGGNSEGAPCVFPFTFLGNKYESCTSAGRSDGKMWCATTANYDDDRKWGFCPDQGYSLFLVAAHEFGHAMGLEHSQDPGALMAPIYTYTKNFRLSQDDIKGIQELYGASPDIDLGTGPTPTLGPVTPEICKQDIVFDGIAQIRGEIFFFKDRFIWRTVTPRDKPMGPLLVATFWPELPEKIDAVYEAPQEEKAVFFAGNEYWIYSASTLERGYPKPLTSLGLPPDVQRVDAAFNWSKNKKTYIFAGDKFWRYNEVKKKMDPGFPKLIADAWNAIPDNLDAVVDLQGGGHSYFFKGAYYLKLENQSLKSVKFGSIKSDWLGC

[3] = target: T3, MMP-3 (Homo sapiens, UniProt P08254); test: Automated MMP Profiling Assay, MMP-3 fluorogenic; details: 96-well automated, P218
T3 construct: Truncated Prostromelysin-257 was expressed in a soluble form in E.coli; made in house; host or cells: E. coli
T3 sequence (P08254 100-274 limits assumed): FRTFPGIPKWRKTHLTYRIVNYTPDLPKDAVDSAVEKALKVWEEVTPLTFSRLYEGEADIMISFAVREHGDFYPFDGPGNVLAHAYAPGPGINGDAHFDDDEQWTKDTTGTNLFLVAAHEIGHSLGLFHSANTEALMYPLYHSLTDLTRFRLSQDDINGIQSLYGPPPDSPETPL
From the text: This assay with each invention compound was run with the three enzymes MMP-3, MMP-9 and MMP-2 in parallel as adapted for a 96-well microtitre plate using a Hamilton A® workstation.

[4] = target: T1, MMP-9; test: Thiopeptilide MMP-9 Inhibition Assay; details: for IC50: pH 6.5, x (n) = average of n determinations, read-out: MMP-9: Thiopep. IC50; for inhibition at 5 µM: read-out: MMP-9: Thiopep. % inhibition
[5] = target: T3, MMP-3; test: Primary Thiopeptilide MMP-3 Inhibition Assay; details: for IC50: pH 6.5, 13 nM stromelysin, x (n) = average of n determinations, read-out: MMP-3 Thiopep. IC50; for inhibition at 5 µM: read-out: MMP-3 Thiopep. % inhibition
Method: Enzyme: recombinant stromelysin expressed in E.coli and purified as described above. […] The protocols for the assay of compounds as stromelysin inhibitors was the same as that used for MMP-9 except that the assay buffer was 50 mM MES, pH 6.5 containing 150 mM NaCl, 10 mM CaCl2, 0.005% Brij, and 1% DMSO.

T1 sequence (P14780 107-707 limits assumed): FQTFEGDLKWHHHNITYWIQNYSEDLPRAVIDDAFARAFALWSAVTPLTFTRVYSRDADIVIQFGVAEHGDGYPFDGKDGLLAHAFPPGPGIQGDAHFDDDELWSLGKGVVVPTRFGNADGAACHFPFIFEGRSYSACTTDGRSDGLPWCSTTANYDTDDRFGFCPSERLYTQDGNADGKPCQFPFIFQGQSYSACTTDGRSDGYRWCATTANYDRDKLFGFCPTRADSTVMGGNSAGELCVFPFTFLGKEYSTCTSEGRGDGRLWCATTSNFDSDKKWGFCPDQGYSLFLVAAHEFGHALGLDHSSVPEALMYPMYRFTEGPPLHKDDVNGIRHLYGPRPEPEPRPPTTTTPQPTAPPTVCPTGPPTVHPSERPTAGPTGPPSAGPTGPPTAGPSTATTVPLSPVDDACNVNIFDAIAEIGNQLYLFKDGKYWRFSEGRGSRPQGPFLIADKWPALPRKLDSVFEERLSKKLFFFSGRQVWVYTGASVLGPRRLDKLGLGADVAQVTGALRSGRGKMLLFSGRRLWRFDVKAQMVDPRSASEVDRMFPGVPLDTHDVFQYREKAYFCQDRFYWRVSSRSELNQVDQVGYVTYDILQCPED

Structure (SMILES)	IC50 [1] [nM]	IC50 [3] [nM]	IC50 [4] [nM]	IC50 [5] [nM]	other results
O=C(O)[C@H]1[C@H](CON2C(=O)c3ccccc3C2=O)CC[C@@H]1C(=O)c1ccc(-c2ccc(Cl)cc2)cc1 (relative stereo) [Example 389, Cyclopentanecarboxylic acid, 2-[(4'-chloro[1,1'-biphenyl]-4-yl)carbonyl]-5-[[(1,3-dihydro-1,3-dioxo-2H-isoindol-2-yl)oxy]methyl]-, (1α,2β,5β)-]	23	15	–	–	IC50 [2]: 6.3 nM
O=C(CC(CCN1C(=O)c2cccc3cccc(c23)C1=O)C(=O)O)c1ccc(-c2ccc(Cl)cc2)cc1 (stereo not drawn) [Example 410, 1H-Benz[de]isoquinoline-2(3H)-butanoic acid, α-[2-(4'-chloro[1,1'-biphenyl]-4-yl)-2-oxoethyl]-1,3-dioxo-]	44	104	–	–	IC50 [2]: 80 nM
CCCCCOc1ccc(-c2ccc(C(=O)[C@H]3CC[C@H](Sc4ccccc4)[C@@H]3C(=O)O)cc2)cc1 (relative stereo) [Example 317, Cyclopentanecarboxylic acid, 2-[[4'-(pentyloxy)[1,1'-biphenyl]-4-yl]carbonyl]-5-(phenylthio)-, (1α,2β,5α)-]	808	75	–	–	IC50 [2]: 37 nM
COc1ccc(CSCCC(CC(=O)c2ccc(-c3ccc(Cl)cc3)cc2)C(=O)O)cc1 (stereo not drawn) [Example 427, [1,1'-Biphenyl]-4-butanoic acid, 4'-chloro-α-[2-[[(4-methoxyphenyl)methyl]thio]ethyl]-γ-oxo-]	362	189	–	–	IC50 [2]: 42 nM
O=C(O)[C@H]1[C@H](CSc2cccs2)CC[C@@H]1C(=O)c1ccc(-c2ccc(Cl)cc2)cc1 (relative stereo) [Example 369, Cyclopentanecarboxylic acid, 2-[(4'-chloro[1,1'-biphenyl]-4-yl)carbonyl]-5-[(2-thienylthio)methyl]-, (1α,2β,5β)-]	139	54	–	–	IC50 [2]: 37 nM
O=C(CC(CCN1C(=O)[C@H]2CC=CC[C@H]2C1=O)C(=O)O)c1ccc(-c2ccc(Cl)cc2)cc1 (relative stereo) [Example 413, 2H-Isoindole-2-butanoic acid, α-[2-(4'-chloro[1,1'-biphenyl]-4-yl)-2-oxoethyl]-1,3,3a,4,7,7a-hexahydro-1,3-dioxo-, cis-]	109	39	–	–	–
O=C(CC(CSc1ccccc1)C(=O)O)c1ccc(-c2ccc(Cl)cc2)cc1 (centres unmarked) [Example 196, 4-[4-(4-chlorophenyl)phenyl]-4-oxo-2-(phenylthiomethyl)butanoic acid]	955	–	438	–	IC50 [2]: 37 nM
Nc1cccc2c1C(=O)N(C[C@@H]1CC[C@H](C(=O)c3ccc(-c4ccc(Cl)cc4)cc3)[C@H]1C(=O)O)C2=O (relative stereo) [Example 392, Cyclopentanecarboxylic acid, 2-[(4-amino-1,3-dihydro-1,3-dioxo-2H-isoindol-2-yl)methyl]-5-[(4'-chloro[1,1'-biphenyl]-4-yl)carbonyl]-, (1α,2β,5β)-]	–	2.5	–	–	–
O=C(O)CCC(=O)c1ccc(-c2ccc(Cl)cc2)cc1 [Example 6, [1,1'-Biphenyl]-4-butanoic acid, 4'-chloro-γ-oxo-, reference compound]	–	–	–	2100	inhibition at 5 µM [4]: 38%
O=C(O)[C@@H]1C[C@H]1C(=O)c1ccc(-c2ccc(Cl)cc2)cc1 (relative stereo) [Example 293, Cyclopropanecarboxylic acid, 2-[(4'-chloro[1,1'-biphenyl]-4-yl)carbonyl]-, trans-, reference compound]	–	–	–	–	inhibition at 5 µM [4]: 0%; inhibition at 5 µM [5]: 16%
O=C(c1ccc(-c2ccc(Cl)cc2)cc1)[C@H]1C[C@H]1C(=O)O (relative stereo) [Example 292, Cyclopropanecarboxylic acid, 2-[(4'-chloro[1,1'-biphenyl]-4-yl)carbonyl]-, cis-, reference compound]	–	–	–	–	inhibition at 5 µM [4]: 12%; inhibition at 5 µM [5]: 21%
O=C(O)CCC(=O)c1ccc(-c2cccc(Cl)c2)cc1 [Example 12, [1,1'-Biphenyl]-4-butanoic acid, 3'-chloro-γ-oxo-, reference compound]	–	–	–	–	inhibition at 5 µM [4]: 0%; inhibition at 5 µM [5]: 17%
O=C(CC(CSc1ccc(Br)cc1)C(=O)O)c1ccc(-c2ccc(Cl)cc2)cc1 (stereo not drawn) [Example 210, [1,1'-Biphenyl]-4-butanoic acid, α-[[(4-bromophenyl)thio]methyl]-4'-chloroγ-oxo-]	–	–	205	500	–
O=C(O)CCC(O)c1ccc(-c2ccccc2F)cc1 (centres unmarked) [Example 39, [1,1'-Biphenyl]-4-butanoic acid, 2'-fluoro-γ-hydroxy-, reference compound]	–	–	–	–	inhibition at 5 µM [4]: 4%; inhibition at 5 µM [5]: 16%
O=C(CC(CSCc1ccccc1)C(=O)O)c1ccc(-c2ccc(Cl)cc2)cc1 (stereo not drawn) [Example 203, [1,1'-Biphenyl]-4-butanoic acid, 4'-chloro-γ-oxo-α-[[(phenylmethyl)thio]methyl]-]	–	–	1200	247	–
COc1ccc(SCC(CC(=O)c2ccc(-c3ccc(Cl)cc3)cc2)C(=O)O)cc1 (stereo not drawn) [Example 206, [1,1'-Biphenyl]-4-butanoic acid, 4'-chloro-α-[[(4-methoxyphenyl)thio]methyl]-γ-oxo-]	–	–	417	950	–
O=C(O)[C@@H]1[C@@H](C(=O)c2ccc(-c3ccc(Cl)cc3)cc2)CC[C@H]1Sc1ccc(F)cc1 (relative stereo) [Example 309, Cyclopentanecarboxylic acid, 2-[(4'-chloro[1,1'-biphenyl]-4-yl)carbonyl]-5-[(4-fluorophenyl)thio]-, (1α,2β-5β)-]	–	–	62	73	–
O=Cc1ccc(-c2ccc(C(=O)CC(CCCc3ccccc3)C(=O)O)cc2)cc1 (stereo not drawn) [Example 78, [1,1'-Biphenyl]-4-butanoic acid, 4'-formyl-γ-oxo-α-(3-phenylpropyl)-]	–	–	1200	310	–
CNC(=O)c1ccccc1SCC(CC(=O)c1ccc(-c2ccc(Cl)cc2)cc1)C(=O)O (stereo not drawn) [Example 250, [1,1'-Biphenyl]-4-butanoic acid, 4'-chloro-α-[[[2-[(methylamino)carbonyl]phenyl]thio]methyl]-γ-oxo-]	–	–	800	125	–
O=C(CC(CSc1cccc2cccnc12)C(=O)O)c1ccc(-c2ccc(Cl)cc2)cc1 (stereo not drawn) [Example 241, [1,1'-Biphenyl]-4-butanoic acid, 4'-chloro-γ-oxo-α-[(8-quinolinylthio)methyl]-]	–	–	340	195	–
CN(C)c1ccc(-c2ccc(C(=O)CC(CCCc3ccccc3)C(=O)O)cc2)cc1 (stereo not drawn) [Example 60, [1,1'-Biphenyl]-4-butanoic acid, 4'-(dimethylamino)-γ-oxo-α-(3-phenylpropyl)-]	–	–	180	600	–
